# Measurements: patent US6645715B1, “Artificial cornea” (University of Ottawa, priority 1998, dated 2003)
# Experiments:
# [1] = system: FFA-activated K^+ current of cultured human corneal epithelial cells; test: Perforated-patch whole-cell patch clamp, pharmacological activators (FFA-activated current); assay type: cell-based; conditions: for effect on the FFA-activated current: 3 mM TEA or 5 mM Ba^+2
# Protocol: (§1) Single cells for patch clamp analysis of transfected and non-transfected cells were obtained by washing cultured cells free of culture medium using PBS containing 0.53 mM EDTA and then incubating with Ca^+2 and Mg^+2 free Hanks' balanced salt solution (GIBCO) containing 0.05% trypsin and 0.53 mM EDTA for 2 minutes at 37° C. in a 5% CO2 incubator. Loose cells were aspirated into a Pasteur pipette and transferred into a conical tube containing Media 199 (Sigma, St. Louis, Mo.) supplemented with 10% FCS (Sigma, St. Louis, Mo.). Isolated cells were transferred to an inverted microscope mounted with an external stage, placed into an acrylic chamber filled with Ringer's solution, and allowed to settle and attach to the glass bottom.
# Macroscopic currents in single cells were examined using the perforated-patch configuration of the whole-cell patch-clamp technique with amphotericin B as the perforating agent. The composition of the patch pipette in millimolar was 145 potassium methanesulfonate, 2.5 NaCl, 2.5 CaCl2, 5 HEPES, and […] amphotericin B. Patch pipettes were fabricated from KG-12 capillary glass, coated with Sylgard (Dow Corning, Midland, Mich.) and fire polished. Currents were recorded at room temperature using a patch-clamp amplifier operated by Gateway 486DX2 computer (Gateway 2000, Sioux City, S. Dak.) loaded with pCLAMP software (Axon 200A, Axon Instruments, Foster City, Calif.) for the generation of voltage-clamp protocols. Current recordings were capacity compensated using the amplifier circuitry, sampled between 2 to 5 kHz, filtered between 1 to 2 kHz, and subsequently analyzed with the software program. Voltage-clamp protocols were repeated at least three times to obtain the average current response to a voltage pulse. Current voltage (I-V) relationships were corrected for the junction potential generated by the pipette solution and the amphotericin B-induced Donnan potential by subtracting the difference between the reversal potential of tail currents measured in symmetrical K^+ solutions and the 0 mV potential.
# The tests of examples 1.1, 1.2, and 1.3 were repeated following the addition of 100 μM flufenamic acid (FFA) to the NaCl Ringer's bath.
# To determine the ion selectivity of this TEA-sensitive FFA-activated current, cultured human corneal epithelial cells were bathed in NaCl Ringer's solution with 100 μM FFA and a family of instantaneous tail currents was generated. The same cells were then bathed in NaCl Ringer's solution with 100 μM FFA and 3 mM TEA and a second family of instantaneous tail currents was generated. An instantaneous tail I-V plot was obtained by digitally subtracting the instantaneous tail responses determined for the same cell bathed with FFA with and without TEA.
# [2] = system: nonselective cation current of human corneal epithelial cells; test: Perforated-patch whole-cell patch clamp, nonselective cation current; assay type: cell-based; conditions: 1 mM external
# Protocol: as §1
# Macroscopic currents in single cells were examined using the perforated-patch configuration of the whole-cell patch-clamp technique with amphotericin B as the perforating agent. […] Currents were recorded at room temperature using a patch-clamp amplifier operated by Gateway 486DX2 computer (Gateway 2000, Sioux City, S. Dak.) loaded with pCLAMP software (Axon 200A, Axon Instruments, Foster City, Calif.) for the generation of voltage-clamp protocols. Current recordings were capacity compensated using the amplifier circuitry, sampled between 2 to 5 kHz, filtered between 1 to 2 kHz, and subsequently analyzed with the software program. […]
# [3] = system: endothelium of reconstructed corneas (Na/K ATPase); test: Endothelial function test: corneal thickness by Optical Coherence Tomography after ouabain; assay type: cell-based, human; conditions: 10^-4M ouabain in DMEM, 2 hours, silicone oil on epithelium; one set of corneas, preliminary
# Text: Ouabain, a cardiac glycoside, inhibits Na/K ATPase, disrupting corneal endothelial functioning. When this is applied to the cornea, the endothelium looses its pumping function, and without this, the cornea will swell (Watsky et al. 1990).
# 1. Corneas were reconstructed in 30 mm inserts. In this experiment, we have contructed them with the epithelium down.
# 2. A whole cornea was immersed in DMEM only.
# 3. At the start of the experiment, medium outside insert was removed and replaced with silicone oil. This essentially seals off the epithelium. Corneal thickness was measured using Optical Coherence Tomography (OCT) (Humphrey Instruments, Carl Zeiss, Inc.). Four readings were taken from each cornea and the average was taken.
# 4. DMEM within the control insert was replaced with 1 ml of fresh DMEM only. Experimental cornea was treated with 10^-4M ouabain in DMEM.
# 5. After 2 hours, the corneal thicknesses were measured by OCT.
# 6. Changes in corneal thickness (if any) was calculated.
# [4] = system: immortalized HUVECs (Cell Lines); test: Response to growth factors, immortalized HUVECs in matrix; assay type: cell-based, human
# Protocol: For transfection, primary HUVECs were seeded onto uncoated 60 mm tissue culture plates and cultured until 60-70% confluent. They were then immortalized by infection with the HPV16 E6 and E7 genes and selected by G418 resistance as described above.
# The virally transfected HUVECs were tested for functionality by their ability to undergo angiogenesis in a three-dimensional fibrin-containing matrix (FIG. 16); and their ability to sequester acetylated low density lipoprotein labelled with 1,1′-dioctadecyl-3,3,3′,3′-tetramethylindocarbocyanine perchlorate (DiI-Ac-LDL; Biomed. Technol. Inc., Stoughton, Mass.), (FIGS. 17 and 18). Immortalized HUVECs can also be maintained in the serum-free medium. As with corneal cell lines, other genes can also be introduced into HUVEC lines. For example, GFP has been introduced by transfection.
# During the assays in matrices, cells were grown in serum (10%) supplemented-medium 199 containing heparin, L-glutamine or modified glutamine such as L-Alanyl-L-Glutamine (GlutaMAX™, GIBCO) and antibiotics at the same concentration as described above, without ECGS, but with 50 ng/ml of FGF-2. Serum-free medium has also been used.
# [5] = system: primary HUVECs (Normal Cells); test: Response to growth factors, primary HUVECs in matrix; assay type: cell-based, human
# Protocol: Human umbilical vein endothelial cells (HUVECs) were harvested from umbilical cord veins as previously described (Sirois E, et al., Int. J. Artificial Organs 16:609-619, 1993). They were grown on a gelatin-coated dish until confluence in Medium 199 supplemented with 20% FBS, 90 mg/l of heparin, 2 mM of L-glutamine and 100 μg/ml endothelial cell growth supplement (ECGS). Penicillin (100 I.U./ml), streptomycin sulfate (100 μg/ml) and amphotericin B (0.25 μg/ml) were present in medium. After the first passage, FBS concentration was reduced to 10% and ECGS to 20 μg/ml. Cells were subcultured at a ratio of 1:3 or 1:4 and HUVECs from the 2nd to 4th passages were used in our bioassays. Endothelial cell phenotype was verified by the dii-acetylated low-density lipoprotein (diI-Ac-LDL) uptake and positivity to factor VIII-related antigen antibodies by immunocytochemistry. Cultures were incubated in 5% CO2 atmosphere at 37° C. in saturated humidity. The medium was changed every other day.
# The virally transfected HUVECs were tested for functionality by their ability to undergo angiogenesis in a three-dimensional fibrin-containing matrix (FIG. 16); and their ability to sequester acetylated low density lipoprotein labelled with 1,1′-dioctadecyl-3,3,3′,3′-tetramethylindocarbocyanine perchlorate (DiI-Ac-LDL; Biomed. Technol. Inc., Stoughton, Mass.), (FIGS. 17 and 18). […]
# [6] = system: reconstructed corneas; test: Responses of reconstructed corneas to aqueous test chemicals (wound, corneal transparency); assay type: cell-based, human; conditions: 100 μl centrally for 10 min, washed off with saline, re-cultured 3 days; 10% SDS, 0.01% benzalkonium chloride solution
# Protocol: Each cornea was exposed centrally to 100 μl of the test chemical for 10 min, after which the chemical was washed off with saline and the corneas were re-cultured for a further 3 days. The saline-treated cornea served as the control.
# [7] = system: reconstructed corneas; test: Live-dead staining of reconstructed corneas after chemical exposure; assay type: cell-based, human; conditions: SDS; 0.01% benzalkonium chloride solution
# Text: Live cells are green, while dying or dead cells are orange-red. […] C.
compound,measurement,setting,value
"O=C(O)c1ccccc1Nc1cccc(C(F)(F)F)c1 [FFA, flufenamic acid]",voltages at which a second FFA-stimulated K^+ current is active,[1],greater than +10 mV
same,activation voltage of the FFA-stimulated current (I-V plot),[1]; 100 μM FFA,about −60 mV
same,increase in the maximum outward current,"[1]; 100 μM FFA in NaCl Ringer's bath, versus cells not exposed",more than 10 fold
same,Erev for the TEA-sensitive FFA-activated current,"[1]; 100 μM FFA with and without 3 mM TEA, digital subtraction of instantaneous tail currents",about −80 mV
same,reversibility of the FFA response,"[1]; 100 μM FFA, same cell",reversible and repeatable
"CC[N+](CC)(CC)CC [TEA, tetraethylammonium]",effect on the FFA-activated current,[1]; 100 μM FFA,blocked
[Ba+2] [barium],effect on the FFA-activated current,[1]; 100 μM FFA,blocked
same,sensitivity of the nonselective cation current,[2],not sensitive
[Gd] [gadolinium],sensitivity of the nonselective cation current,[2],not sensitive
"C[C@@H]1O[C@@H](O[C@H]2C[C@@H](O)[C@]3(CO)[C@H]4[C@H](O)C[C@]5(C)[C@@H](C6=CC(=O)OC6)CC[C@]5(O)[C@@H]4CC[C@]3(O)C2)[C@H](O)[C@H](O)[C@H]1O [ouabain, Ouabain]",change in corneal thickness (swelling),[3],24%
FGF-2: basic fibroblast growth factor,"Response to Growth Factors, Cell Lines",[4]; FGF-2 (50 ng/ml),Angiogenesis
same,"Response to Growth Factors, Cell Lines","[4]; FGF-2, concentration not given",Cell death
same,"Response to Growth Factors, Normal Cells",[5]; FGF-2 (50 ng/ml),Angiogenesis
same,"Response to Growth Factors, Normal Cells","[5]; FGF-2, concentration not given",Cell death
benzalkonium chloride,wound / change of corneal transparency,[6],caused wounds to the centre of the cornea
same,"live-dead staining, epithelial cells",[7],some dead and dying cells but mostly live cells
same,"live-dead staining, stromal cells",[7],mostly alive
same,penetration into the stromal compartment,[7],little/no penetration of solution into the stromal compartment
